Data published in PubChem BioAssay (NCI).
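In this assay, cells in 96-well plates receive the compound at five concentrations for 48 hours. Endpoints are linearly interpolated between the surrounding concentrations. The concentration for 50% growth inhibition is given as GI50. TGI denotes the concentration required for complete inhibition of growth.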

Assays:
Assay in all cases: NCI-60 cell line screen, 48 h
ACHN renal = test system: ACHN renal
CAKI-1 renal = test system: CAKI-1 renal
KM12 colon = test system: KM12 colon
NCI-H522 lung = test system: NCI-H522 lung
OVCAR-3 ovarian = test system: OVCAR-3 ovarian
OVCAR-5 ovarian = test system: OVCAR-5 ovarian
OVCAR-8 ovarian = test system: OVCAR-8 ovarian
RPMI-8226 leukemia = test system: RPMI-8226 leukemia
SF-295 CNS = test system: SF-295 CNS
SK-MEL-2 melanoma = test system: SK-MEL-2 melanoma
SK-MEL-28 melanoma = test system: SK-MEL-28 melanoma
U251 CNS = test system: U251 CNS
MCF7 breast = test system: MCF7 breast
UO-31 renal = test system: UO-31 renal

| SMILES | TGI (ACHN renal) [µM] | TGI (CAKI-1 renal) [µM] | TGI (KM12 colon) [µM] | TGI (NCI-H522 lung) [µM] | TGI (OVCAR-3 ovarian) [µM] | TGI (OVCAR-5 ovarian) [µM] | TGI (OVCAR-8 ovarian) [µM] | TGI (RPMI-8226 leukemia) [µM] | TGI (SF-295 CNS) [µM] | TGI (SK-MEL-2 melanoma) [µM] | TGI (SK-MEL-28 melanoma) [µM] | TGI (U251 CNS) [µM] | TGI (MCF7 breast) [µM] | TGI (UO-31 renal) [µM] | GI50 (KM12 colon) [µM] | GI50 (NCI-H522 lung) [µM] | GI50 (OVCAR-3 ovarian) [µM] | GI50 (OVCAR-5 ovarian) [µM] | GI50 (OVCAR-8 ovarian) [µM] | GI50 (RPMI-8226 leukemia) [µM] |
| --- | --- | --- | --- | --- | --- | --- | --- | --- | --- | --- | --- | --- | --- | --- | --- | --- | --- | --- | --- | --- |
| Cc1cc2c(cc1Cl)SC(NNC(=O)c1ccncc1)=NS2(=O)=O | > 10 | > 10 | > 10 | > 10 | > 10 | > 10 | > 10 | > 10 | > 10 | > 10 | > 10 | > 10 | – | – | – | – | – | – | – | – |
| Cc1nc2c(n1CCCl)C(=O)c1ccccc1C2=O | > 100 | – | > 100 | 49.6 | > 100 | 36.3 | 42.6 | > 100 | 62.6 | – | > 100 | 62.4 | 41.6 | – | – | – | – | – | – | – |
| CCOC(=O)C1=C(C)C2C3C(=O)NC(=O)C3C1(C)C1C(=O)NC(=O)C21 (stereo unspecified) | > 100 | – | > 100 | – | > 100 | – | > 100 | > 100 | > 100 | > 100 | > 100 | > 100 | – | > 100 | – | – | – | – | – | – |
| O=C(/C=C(\O)C(=O)O)/C=C(\O)c1ccccc1Cl | > 100 | > 100 | > 100 | > 100 | > 100 | > 100 | > 100 | > 100 | > 100 | > 100 | > 100 | > 100 | – | > 100 | – | – | – | – | – | – |
| CO[C@H]1C[C@@H]2CC[C@@H](C)[C@@](O)(O2)C(=O)C(=O)N2CCCC[C@H]2C(=O)O[C@H]([C@H](C)C[C@@H]2CC[C@@H](OC(=O)C(C)(CO)CO)[C@H](OC)C2)CC(=O)[C@H](C)/C=C(\C)[C@@H](O)[C@@H](OC)C(=O)[C@H](C)C[C@H](C)/C=C/C=C/C=C/1C | > 100 | > 79.7 | > 100 | > 49.6 | > 100 | > 100 | > 86.4 | > 29.3 | > 100 | > 55.1 | > 100 | > 47.4 | – | > 100 | 2.17 | 0.121 | 1.78 | > 59.1 | < 0.0143 | < 0.0247 |
| CC(=O)CCC(=O)CC(O)(C(F)(F)F)C(F)(F)F | 42.6 | – | 31.1 | – | – | 29.9 | 37.9 | 49.8 | 27.1 | – | 39.6 | 33.2 | 37.1 | 27.8 | – | – | – | – | – | – |
| COC(=O)c1cccc(C)c1C1CN=NC12Cc1c(ccc(C)c1C)C2=O (stereo unspecified) | > 100 | > 100 | > 100 | > 100 | > 100 | > 100 | > 100 | 96.2 | – | – | > 100 | > 100 | > 100 | > 100 | – | – | – | – | – | – |
| O=C(/C=C\c1cccc2ccccc12)c1ccc(Br)cc1 | 31.2 | > 100 | 28.3 | 35.3 | 34.4 | 47.4 | 33 | 45.9 | 46.5 | – | 27.7 | 29.6 | – | 42.5 | – | – | – | – | – | – |
| Cc1cccc(NC(=O)CSc2nnc(Cc3ccccc3)o2)c1 | > 100 | > 100 | > 100 | > 100 | > 100 | > 100 | > 100 | – | > 100 | > 100 | > 100 | > 100 | – | > 100 | – | – | – | – | – | – |
| Cc1ccc(C2=NN(C)COC2C(F)(F)F)cc1 (stereo unspecified) | > 100 | > 100 | > 100 | > 100 | > 100 | > 100 | > 100 | > 100 | > 100 | > 100 | > 100 | > 100 | – | > 100 | – | – | – | – | – | – |
| CC/C(=C/OC)P1(=O)OC(C)(C)CN1C(C)(C)C (stereo unspecified) | > 100 | > 100 | > 100 | – | > 100 | > 100 | > 100 | > 100 | > 100 | > 100 | – | > 100 | > 100 | > 100 | – | – | – | – | – | – |
| CC(C)C1=CC(=O)C(C)(C2=NC(C)(C)CO2)c2ccccc21 (stereo unspecified) | > 100 | > 100 | > 100 | > 100 | > 100 | – | > 100 | > 100 | > 100 | > 100 | > 100 | > 100 | – | > 100 | – | – | – | – | – | – |
| CCOC(=O)C(=O)Nc1ccc([N+](=O)[O-])cc1C#N | > 100 | > 100 | > 100 | > 100 | > 100 | > 100 | > 100 | > 100 | > 100 | > 100 | > 100 | > 100 | – | > 100 | – | – | – | – | – | – |
| CCOC(=O)Cc1nc2nn(Cc3ccccc3)cc2c(=O)[nH]1 | > 100 | > 100 | > 100 | – | > 100 | > 100 | > 100 | > 100 | > 100 | – | > 100 | > 100 | > 100 | > 100 | – | – | – | – | – | – |
| O=C(CSc1nnc(-c2ccc(N=Cc3ccc(Cl)cc3)cc2)o1)Nc1ccccc1 | > 100 | – | – | 35.5 | – | – | > 100 | > 100 | > 100 | > 100 | > 100 | > 100 | – | > 100 | – | – | – | – | – | – |
| Cc1c(C(=O)Nc2ccc(Cl)c(C(F)(F)F)c2)oc2cc(O)ccc2/c1=N\NC(N)=S | > 100 | > 100 | > 100 | > 100 | > 100 | > 100 | > 100 | > 100 | > 100 | > 100 | > 100 | > 100 | – | > 100 | – | – | – | – | – | – |
| NC(=S)Nc1nnc(-c2ccc(-c3nnc(NC(N)=S)o3)cc2)o1 | > 100 | > 100 | > 100 | > 100 | > 100 | > 100 | > 100 | > 100 | > 100 | > 100 | > 100 | > 100 | – | > 100 | – | – | – | – | – | – |
| Clc1cccc(Cl)c1C1SCc2nc3cc4ccccc4cc3n21 (stereo unspecified) | > 100 | > 100 | > 100 | – | > 100 | > 100 | > 100 | > 100 | > 100 | > 100 | > 100 | > 100 | > 100 | > 100 | – | – | – | – | – | – |
